From ChEMBL document CHEMBL3885861, “Open TG-GATES”

Species: Rattus norvegicus
Assay: Open TG-GATES - Regimen: Single
Type: toxicity, organism-based, Sprague-Dawley
Design: regimen Single, gender Male, age 6 weeks
Conditions: in vivo, po, route gavage; for gamma-GTP / ALP / ALT / AST / BUN / CRE / Ca / Cl / DBIL / GLC / IP / K / LDH / Na / PL / RALB / TBIL / TC / TG / TP: tissue Plasma; for APTT / Bas / Eos / Fbg / Hb / Ht / Lym / MCH / MCHC / MCV / Mono / Neu / PT / Plat / RBC / Ret: tissue Blood; for KIDNEY_L / KIDNEY_R / KIDNEY_TOTAL: tissue Kidney; for LIVER: tissue Liver
[1] = 100 mg/kg, 24 h, dose level Low

Compound COc1ccc2[nH]c([S+]([O-])Cc3ncc(C)c(OC)c3C)nc2c1 (centres undefined) [OMEPRAZOLE] has a gamma-GTP (0 mg/kg, 24 h, dose level Control) of 1.4 IU/L, a TERMINAL_BW (100 mg/kg, 3 h, dose level Low) of 221.4 g and an APTT (100 mg/kg, 3 h, dose level Low) of 18.4 s. The Bas (100 mg/kg, 3 h, dose level Low) was 0%, the Eos (100 mg/kg, 3 h, dose level Low) was 1.2% and the Fbg (100 mg/kg, 3 h, dose level Low) was 209.8 mg/dL. For the same compound, the Hb (100 mg/kg, 3 h, dose level Low) was 12.8 g/dL, the Ht (100 mg/kg, 3 h, dose level Low) was 37.6% and the Lym (100 mg/kg, 3 h, dose level Low) was 77.2%. The MCH (100 mg/kg, 3 h, dose level Low) was 21.2 pg, the MCHC (100 mg/kg, 3 h, dose level Low) was 34.1% and the MCV (100 mg/kg, 3 h, dose level Low) was 62.2 fL. The Mono (100 mg/kg, 3 h, dose level Low) was 3.4%, the Neu (100 mg/kg, 3 h, dose level Low) was 18% and the PT (100 mg/kg, 3 h, dose level Low) was 12.6 s. The Plat (100 mg/kg, 3 h, dose level Low) was 122.2 x10_4/uL, the RBC (100 mg/kg, 3 h, dose level Low) was 603.6 x10_4/ul and the Ret (100 mg/kg, 3 h, dose level Low) was 6.9%. For the same compound, the KIDNEY_L (100 mg/kg, 3 h, dose level Low) was 1 g, the KIDNEY_R (100 mg/kg, 3 h, dose level Low) was 1 g and the KIDNEY_TOTAL (100 mg/kg, 3 h, dose level Low) was 2 g. It also gave an LIVER (100 mg/kg, 3 h, dose level Low) of 10.2 g, an ALP (100 mg/kg, 3 h, dose level Low) of 983 IU/L and an ALT (100 mg/kg, 3 h, dose level Low) of 33.8 IU/L. The AST (100 mg/kg, 3 h, dose level Low) was 73.6 IU/L, the BUN (100 mg/kg, 3 h, dose level Low) was 11.6 mg/dL and the CRE (100 mg/kg, 3 h, dose level Low) was 0.4 mg/dL. It also gave a Ca (100 mg/kg, 3 h, dose level Low) of 10.6 mg/dL, a Cl (100 mg/kg, 3 h, dose level Low) of 100.6 meq/L and a DBIL (100 mg/kg, 3 h, dose level Low) of 0.078 mg/dL. It also gave a GLC (100 mg/kg, 3 h, dose level Low) of 201.4 mg/dL, an IP (100 mg/kg, 3 h, dose level Low) of 9.1 mg/dL and a K (100 mg/kg, 3 h, dose level Low) of 4 meq/L. The LDH (100 mg/kg, 3 h, dose level Low) was 180.6 IU/L, the Na (100 mg/kg, 3 h, dose level Low) was 140.2 meq/L and the PL (100 mg/kg, 3 h, dose level Low) was 144.8 mg/dL. The RALB (100 mg/kg, 3 h, dose level Low) was 3.3 g/dL, the TBIL (100 mg/kg, 3 h, dose level Low) was 0.1 mg/dL and the TC (100 mg/kg, 3 h, dose level Low) was 74.2 mg/dL. The TG (100 mg/kg, 3 h, dose level Low) was 86.6 mg/dL, the TP (100 mg/kg, 3 h, dose level Low) was 5.4 g/dL and the gamma-GTP (100 mg/kg, 3 h, dose level Low) was 0.8 IU/L. It also gave a TERMINAL_BW (100 mg/kg, 6 h, dose level Low) of 217.8 g, an APTT (100 mg/kg, 6 h, dose level Low) of 19.2 s and a Bas (100 mg/kg, 6 h, dose level Low) of 0%. It also gave an Eos (100 mg/kg, 6 h, dose level Low) of 1%, a Fbg (100 mg/kg, 6 h, dose level Low) of 217 mg/dL and a Hb (100 mg/kg, 6 h, dose level Low) of 13.2 g/dL. For the same compound, the Ht (100 mg/kg, 6 h, dose level Low) was 38.6%, the Lym (100 mg/kg, 6 h, dose level Low) was 76% and the MCH (100 mg/kg, 6 h, dose level Low) was 21.1 pg. The MCHC (100 mg/kg, 6 h, dose level Low) was 34.2%, the MCV (100 mg/kg, 6 h, dose level Low) was 61.7 fL and the Mono (100 mg/kg, 6 h, dose level Low) was 4%. It also gave a Neu (100 mg/kg, 6 h, dose level Low) of 18.8%, a PT (100 mg/kg, 6 h, dose level Low) of 12.9 s and a Plat (100 mg/kg, 6 h, dose level Low) of 114.2 x10_4/uL. It also gave an RBC (100 mg/kg, 6 h, dose level Low) of 626.4 x10_4/ul, a Ret (100 mg/kg, 6 h, dose level Low) of 6.5% and a KIDNEY_L (100 mg/kg, 6 h, dose level Low) of 1 g. It also gave a KIDNEY_R (100 mg/kg, 6 h, dose level Low) of 1 g, a KIDNEY_TOTAL (100 mg/kg, 6 h, dose level Low) of 2 g and an LIVER (100 mg/kg, 6 h, dose level Low) of 10.1 g. The ALP (100 mg/kg, 6 h, dose level Low) was 849 IU/L, the ALT (100 mg/kg, 6 h, dose level Low) was 32 IU/L and the AST (100 mg/kg, 6 h, dose level Low) was 65 IU/L. For the same compound, the BUN (100 mg/kg, 6 h, dose level Low) was 9.4 mg/dL, the CRE (100 mg/kg, 6 h, dose level Low) was 0.4 mg/dL and the Ca (100 mg/kg, 6 h, dose level Low) was 10.6 mg/dL. The Cl (100 mg/kg, 6 h, dose level Low) was 102.4 meq/L, the DBIL (100 mg/kg, 6 h, dose level Low) was 0.074 mg/dL and the GLC (100 mg/kg, 6 h, dose level Low) was 197.8 mg/dL. It also gave an IP (100 mg/kg, 6 h, dose level Low) of 9.4 mg/dL, a K (100 mg/kg, 6 h, dose level Low) of 4 meq/L and an LDH (100 mg/kg, 6 h, dose level Low) of 219.6 IU/L. The Na (100 mg/kg, 6 h, dose level Low) was 141 meq/L, the PL (100 mg/kg, 6 h, dose level Low) was 159.6 mg/dL and the RALB (100 mg/kg, 6 h, dose level Low) was 3.3 g/dL. It also gave a TBIL (100 mg/kg, 6 h, dose level Low) of 0.1 mg/dL, a TC (100 mg/kg, 6 h, dose level Low) of 86.2 mg/dL and a TG (100 mg/kg, 6 h, dose level Low) of 83.4 mg/dL. The TP (100 mg/kg, 6 h, dose level Low) was 5.4 g/dL, the gamma-GTP (100 mg/kg, 6 h, dose level Low) was 1 IU/L and the TERMINAL_BW (100 mg/kg, 9 h, dose level Low) was 217.8 g. The APTT (100 mg/kg, 9 h, dose level Low) was 20.7 s, the Bas (100 mg/kg, 9 h, dose level Low) was 0% and the Eos (100 mg/kg, 9 h, dose level Low) was 0.8%. It also gave a Fbg (100 mg/kg, 9 h, dose level Low) of 217.6 mg/dL, a Hb (100 mg/kg, 9 h, dose level Low) of 12.9 g/dL and a Ht (100 mg/kg, 9 h, dose level Low) of 37.5%. For the same compound, the Lym (100 mg/kg, 9 h, dose level Low) was 76.8%, the MCH (100 mg/kg, 9 h, dose level Low) was 20.9 pg and the MCHC (100 mg/kg, 9 h, dose level Low) was 34.5%. For the same compound, the MCV (100 mg/kg, 9 h, dose level Low) was 60.6 fL, the Mono (100 mg/kg, 9 h, dose level Low) was 3.4% and the Neu (100 mg/kg, 9 h, dose level Low) was 18.4%. It also gave a PT (100 mg/kg, 9 h, dose level Low) of 12.8 s, a Plat (100 mg/kg, 9 h, dose level Low) of 130.5 x10_4/uL and an RBC (100 mg/kg, 9 h, dose level Low) of 620.2 x10_4/ul. It also gave a Ret (100 mg/kg, 9 h, dose level Low) of 6.8%, a KIDNEY_L (100 mg/kg, 9 h, dose level Low) of 1 g and a KIDNEY_R (100 mg/kg, 9 h, dose level Low) of 1 g. It also gave a KIDNEY_TOTAL (100 mg/kg, 9 h, dose level Low) of 2.1 g, an LIVER (100 mg/kg, 9 h, dose level Low) of 9.7 g and an ALP (100 mg/kg, 9 h, dose level Low) of 826.2 IU/L. For the same compound, the ALT (100 mg/kg, 9 h, dose level Low) was 28.8 IU/L, the AST (100 mg/kg, 9 h, dose level Low) was 56.8 IU/L and the BUN (100 mg/kg, 9 h, dose level Low) was 9 mg/dL. It also gave a CRE (100 mg/kg, 9 h, dose level Low) of 0.3 mg/dL, a Ca (100 mg/kg, 9 h, dose level Low) of 10.3 mg/dL and a Cl (100 mg/kg, 9 h, dose level Low) of 101 meq/L. It also gave a DBIL (100 mg/kg, 9 h, dose level Low) of 0.066 mg/dL, a GLC (100 mg/kg, 9 h, dose level Low) of 197.4 mg/dL and an IP (100 mg/kg, 9 h, dose level Low) of 10.1 mg/dL. For the same compound, the K (100 mg/kg, 9 h, dose level Low) was 4 meq/L, the LDH (100 mg/kg, 9 h, dose level Low) was 171.6 IU/L and the Na (100 mg/kg, 9 h, dose level Low) was 140 meq/L. For the same compound, the PL (100 mg/kg, 9 h, dose level Low) was 135.8 mg/dL, the RALB (100 mg/kg, 9 h, dose level Low) was 3.3 g/dL and the TBIL (100 mg/kg, 9 h, dose level Low) was 0.1 mg/dL. The TC (100 mg/kg, 9 h, dose level Low) was 71.2 mg/dL, the TG (100 mg/kg, 9 h, dose level Low) was 68.6 mg/dL and the TP (100 mg/kg, 9 h, dose level Low) was 5.4 g/dL. For the same compound, the gamma-GTP (100 mg/kg, 9 h, dose level Low) was 1 IU/L, the TERMINAL_BW [1] was 234.1 g and the APTT [1] was 19.3 s. For the same compound, the Bas [1] was 0%, the Eos [1] was 1% and the Fbg [1] was 216.2 mg/dL. It also gave a Hb [1] of 12.8 g/dL, a Ht [1] of 37.6% and a Lym [1] of 84.4%. The MCH [1] was 21.2 pg, the MCHC [1] was 34% and the MCV [1] was 62.2 fL. The Mono [1] was 2.4%, the Neu [1] was 12% and the PT [1] was 12.6 s. For the same compound, the Plat [1] was 130.1 x10_4/uL, the RBC [1] was 604.8 x10_4/ul and the Ret [1] was 6.9%. The KIDNEY_L [1] was 1 g, the KIDNEY_R [1] was 1.1 g and the KIDNEY_TOTAL [1] was 2.1 g. It also gave an LIVER [1] of 11.2 g, an ALP [1] of 851.2 IU/L and an ALT [1] of 28.4 IU/L. The AST [1] was 57.8 IU/L, the BUN [1] was 15.8 mg/dL and the CRE [1] was 0.4 mg/dL. For the same compound, the Ca [1] was 10.6 mg/dL, the Cl [1] was 101 meq/L and the DBIL [1] was 0.092 mg/dL. It also gave a GLC [1] of 209.4 mg/dL, an IP [1] of 9.3 mg/dL and a K [1] of 4.4 meq/L. The LDH [1] was 195.8 IU/L, the Na [1] was 140.2 meq/L and the PL [1] was 145.4 mg/dL. It also gave an RALB [1] of 3.2 g/dL, a TBIL [1] of 0.1 mg/dL and a TC [1] of 77.8 mg/dL. It also gave a TG [1] of 89.8 mg/dL and a TP [1] of 5.3 g/dL.
